Measurements: US9056999B2, “Ultraviolet-curable aqueous ink, ink cartridge, recording apparatus and recording method” (Fuji Xerox Co., Ltd., priority 2013, dated 2015)

Assay: Solubility of thioxanthone compound and tertiary amine compound in water-soluble organic solvent at 25° C.
[1] = in 4-(2-hydroxyethyl)morpholine
[2] = in 3-morpholino-1,2-propanediol

Compound	solubility (25° C.) (in 4-ethylmorpholine)	solubility (25° C.) [1]	solubility (25° C.) (in 2-(2-butoxyethoxy)ethanol)	solubility (25° C.) (in 3-methylsulfolane)	solubility (25° C.) [2]	solubility (25° C.) (in 4-(2-aminoethyl)morpholine)	solubility (25° C.) (in 4-acetylmorpholine)	solubility (25° C.) (in 4-hydroxypropylmorpholine)
CC(C)c1ccc2sc3ccccc3c(=O)c2c1 [2-isopropylthioxanthone]	30 mass %							
CCOC(=O)c1ccc(N(CC)CC)cc1 [4-diethylamino ethyl benzoate]		27 mass %						
CCc1cc(CC)c2sc3ccccc3c(=O)c2c1 [Kayacure DETX-S, 2,4-diethylthioxanthone]		15 mass %	17 mass %	4 mass %	9 mass %	14 mass %	20 mass %	
CCOC(=O)c1ccc(N(C)C)cc1 [Kayacure EPA, 4-dimethylamino ethyl benzoate]	40 mass %	30 mass %	30 mass %	18 mass %	30 mass %	30 mass %	35 mass %	18 mass %
